Among the test systems are MALME-3M melanoma; ACHN renal; SF-539 CNS; SK-OV-3 ovarian; NCI-H226 lung; RPMI-8226 leukemia; HT29 colon; MDA-MB-435; COLO 205 colon; KM12 colon.
Holding throughout (test): NCI tumour cell line growth inhibition, 48 h

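96-well plates; 48 h exposure; 5 concentrations. Endpoints by linear interpolation between flanking doses. Not reached: highest tested concentration assigned. GI50 is the concentration that inhibits growth by half. TGI marks complete inhibition of growth.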

The source of these data is PubChem BioAssay (NCI).

With `COc1ccc2c(c1)c(-c1nc(-c3c[nH]c4ncccc34)cs1)cn2CCCN1CCOCC1`, the GI50 in the test on MALME-3M melanoma is 1.39 µM; in the test with ACHN renal, 2.5 µM; with SF-539 CNS, 1.74 µM; with SK-OV-3 ovarian, 2.83 µM; in the test on NCI-H226 lung it was 3.1 µM; in the test with RPMI-8226 leukemia, 1.92 µM. Besides, the GI50 in the test on HT29 colon was 2.22 µM; in the test with MDA-MB-435 it was 1.75 µM; in the test with COLO 205 colon, 1.82 µM; in the test with KM12 colon, 2.41 µM. Also, the TGI in the test with MALME-3M melanoma came out at 3.14 µM; in the test on ACHN renal, 8.22 µM; in the test with SF-539 CNS, 3.67 µM; in the test with SK-OV-3 ovarian it was 8.28 µM; in the test on NCI-H226 lung, 15.9 µM; in the test with RPMI-8226 leukemia, 4.86 µM. Besides, the TGI in the test on HT29 colon came to 6.4 µM; in the test with MDA-MB-435 it was 3.37 µM; in the test on COLO 205 colon it was 3.8 µM; with KM12 colon, 6.88 µM.
In the case of `Cn1c([N+](=O)[O-])cnc1C=C1C(=O)c2ccccc2C1=O`, the GI50 in the test on MALME-3M melanoma is 3.44 µM; in the test on ACHN renal it was 3.75 µM; with SF-539 CNS it was 2.6 µM; in the test on SK-OV-3 ovarian, 6.32 µM; with NCI-H226 lung it was 13.1 µM; with RPMI-8226 leukemia, 3.36 µM. The GI50 in the test on HT29 colon was 7.29 µM; in the test with MDA-MB-435, 2.67 µM; in the test on COLO 205 colon it was 4.83 µM; with KM12 colon it was 11.1 µM. In addition, the TGI with MALME-3M melanoma was determined as 11.6 µM; in the test on ACHN renal, 13.7 µM; in the test on SF-539 CNS, 7.51 µM; with SK-OV-3 ovarian it was 29.4 µM; with NCI-H226 lung, 47.4 µM; in the test on RPMI-8226 leukemia, 13 µM. The TGI with HT29 colon was 25.3 µM; with MDA-MB-435, 11.7 µM; in the test on COLO 205 colon, 15.9 µM; with KM12 colon, 32.7 µM.
Turning to `O=C1Oc2ccccc2C(=O)/C1=C1/C=C(c2ccccc2)SS1`, the TGI with MALME-3M melanoma, in the test on ACHN renal, in the test on SF-539 CNS, in the test on SK-OV-3 ovarian, in the test with NCI-H226 lung and in the test with RPMI-8226 leukemia was above 100 µM each time. The TGI with HT29 colon, in the test with MDA-MB-435, in the test with COLO 205 colon and in the test on KM12 colon was above 100 µM in each case.
Turning to `Cc1ccc2c(-c3ccnc(Nc4ccc5c(c4)OCCO5)n3)c(-c3ccc(C(F)(F)F)cc3)nn2n1`, the GI50 in the test on MALME-3M melanoma is above 25 µM; in the test with ACHN renal it was 16.5 µM; in the test with SF-539 CNS it was above 18.7 µM; in the test with SK-OV-3 ovarian it was 3.8 µM; in the test with NCI-H226 lung, 11.5 µM; with RPMI-8226 leukemia, 2.13 µM. For the same molecule, the GI50 in the test on HT29 colon was 4.42 µM; in the test with MDA-MB-435, 17.2 µM; in the test with COLO 205 colon, 3.17 µM; with KM12 colon, 14.1 µM. Moreover, the TGI was above 25 µM in the test with MALME-3M melanoma; above 25 µM in the test with ACHN renal; above 25 µM in the test on SF-539 CNS; above 25 µM in the test on SK-OV-3 ovarian; above 25 µM in the test with NCI-H226 lung; 13.5 µM with RPMI-8226 leukemia. Moreover, the TGI with HT29 colon, in the test on MDA-MB-435, in the test with COLO 205 colon and in the test on KM12 colon was above 25 µM in each case.
Consider `N#CC1(c2ccc(NC(=O)c3cccnc3NCc3ccncc3)cc2)CCCC1`, for which the GI50 with MALME-3M melanoma is 12.1 µM; in the test on ACHN renal, 12.4 µM; with SF-539 CNS, 3.37 µM; in the test on SK-OV-3 ovarian, 21.7 µM; in the test with NCI-H226 lung it was 12.3 µM; with RPMI-8226 leukemia, 6.73 µM. Besides, the GI50 in the test with HT29 colon was 9.96 µM; with MDA-MB-435 it was 13.4 µM; in the test with COLO 205 colon, 7.43 µM; in the test on KM12 colon, 23 µM. Also, the TGI was 50.1 µM in the test on MALME-3M melanoma; above 70.9 µM in the test with ACHN renal; 29.9 µM in the test on SF-539 CNS; above 84.1 µM in the test on SK-OV-3 ovarian; 75.1 µM in the test with NCI-H226 lung; 31.4 µM in the test with RPMI-8226 leukemia. The TGI in the test with HT29 colon is above 56.2 µM; with MDA-MB-435, 37.4 µM; in the test on COLO 205 colon, 33.5 µM; with KM12 colon, 73 µM.
Regarding `Cc1cccc(NC(=O)c2sc3nc4c(cc3c2N)C(=O)CCC4)c1`, the GI50 was 0.311 µM in the test with MALME-3M melanoma; 1.48 µM with ACHN renal; 0.199 µM with SF-539 CNS; 0.317 µM with SK-OV-3 ovarian; 5.8 µM in the test on NCI-H226 lung; 0.594 µM with RPMI-8226 leukemia. Besides, the GI50 in the test with HT29 colon was 0.223 µM; in the test on MDA-MB-435, 0.0302 µM; in the test with COLO 205 colon, 0.231 µM; with KM12 colon, 0.215 µM. The TGI is 16.9 µM in the test on MALME-3M melanoma; above 58.5 µM with ACHN renal; 0.616 µM with SF-539 CNS; above 100 µM with SK-OV-3 ovarian; above 100 µM in the test on NCI-H226 lung; above 100 µM in the test on RPMI-8226 leukemia. In addition, the results for the TGI in the test with HT29 colon, with MDA-MB-435 and in the test with KM12 colon were above 20.1 µM, 0.126 µM and above 100 µM, respectively.
In the case of `O=c1c2ccccc2sc2c(CO)ccc(NCCN3CCCCC3)c12`, the TGI in the test on MALME-3M melanoma came to 5.2 µM; with ACHN renal it was 9.45 µM; with SF-539 CNS, 16.2 µM; in the test on SK-OV-3 ovarian, 16.3 µM; in the test on NCI-H226 lung, 10.6 µM; with RPMI-8226 leukemia, 4.6 µM. The TGI came to 11.9 µM with HT29 colon, 7.92 µM with MDA-MB-435, 4.78 µM in the test with COLO 205 colon and 14.8 µM in the test on KM12 colon.
